Measurements published in PMC10257182, “Discovery of senolytics using machine learning” (Nature Communications, 2023).
“And” between values parts separate entries of the source, which are not always exact repeats. Identical values can stand only once.

Columns and labels:
Assay type in all cases: cell-based, human
[1] = test system: IMR90 cells at passage 13 (control); settings: for Mean (cell survival, Tukey test details): FIG 4C, Young (control) cells, mean of n=12 as fraction of Young DMSO = 1
Description: IMR90 (CCL-186) human foetal lung fibroblasts and A549 (CCL-185) human lung adenocarcinoma cells were obtained from the American Type Culture Collection (ATCC, Manassas, VA). The cell lines were confirmed to be mycoplasma negative (Lonza MycoAlert, cat #LT07-118). IMR90 ER:RAS is a derivative of IMR90 cells expressing a switchable version of oncogenic H-Ras[84]. IMR90 ER:RAS and A549 cells were maintained in Dulbecco’s Modified Eagle Medium (DMEM, ThermoFisher) supplemented with foetal bovine serum (10%), L-glutamine (2 mM, ThermoFisher), and antibiotic-antimycotic solution (1%, ThermoFisher) and incubated under standard tissue culture conditions (37 °C and 5% CO2). For induction of the senescent phenotype, IMR90-ER:RAS cells were cultured in hydroxytamoxifen (4-OHT) (Sigma) added media at 100 nM final concentration. IMR90 were kept in culture for over 27 passages for replicative senescence. Cells were tested for mycoplasma on a regular basis.
Equal numbers of control and senescent cells were plated at high density on multiwell plates just before senolytic treatment addition. After treatment, cells were fixed on 0.5% glutaraldehyde (Sigma) and then dried at RT overnight. Then, wells were stained with crystal violet solution for 3 h, washed and dried. Once they were completely dry, the plates were scanned for records. Quantification was performed extracting the staining with 1% acetic acid and measuring the final solution by absorbance at 595 nm.

[2] = test system: NOXA mRNA in IMR90 cells at passage 27; test: NOXA mRNA expression by RT-qPCR, replicative senescence; settings: for NOXA mRNA expression, group mean (Test details, Mean 2): Replicative Senescence (RS) cells, mean of n=3; for NOXA mRNA expression, group mean (Test details, Mean 2) / NOXA mRNA expression: 10 nM; for NOXA mRNA expression: Replicative Senescence cells, relative to Control DMSO = 1, individual replicate values
Description: (§1) Total RNA was isolated using RNAeasy kit (Quiagen). cDNA was generated with reverse transcriptase iScript (Bio-Rad). RT-qPCR was performed using SYBR Select Master Mix (Applied Biosystems) in OneStepPlus detection system (Applied Biosystems). Oligos for amplification were: NOXA Fw-[…] and Rv-[…]; b-ACTIN Fw-[…] and Rv-[…]; IL1a Fw-[…] and Rv- […]; IL1b Fw-[…] and Rv- […]; IL8 Fw-[…] and Rv-[…]; p16 Fw-CGGTCGGAGGCCGATCCAG and Rv- […]; p21Fw-[…] and Rv- […].

[3] = test system: p16 and p21 mRNA in IMR90 ER:RAS cells; test: p16 and p21 mRNA expression by RT-qPCR, OIS
Description: as §1

[4] = test system: p16 and p21 mRNA in IMR90 cells at passage 27; test: p16 and p21 mRNA expression by RT-qPCR, replicative senescence
Description: as §1

[5] = test system: IL1α, IL1β and IL8 mRNA in IMR90 ER:RAS cells; test: IL1α, IL1β and IL8 mRNA expression by RT-qPCR, OIS
Description: as §1

[6] = test system: IL1α, IL1β and IL8 mRNA in IMR90 cells at passage 27; test: IL1α, IL1β and IL8 mRNA expression by RT-qPCR, replicative senescence; settings: Replicative senescence cells treated with Oleandrin; relative to Replicative senescence DMSO = 1; individual replicates (Sup Fig 9M)
Description: as §1

control A549 cells = test: Cell survival assay using crystal violet staining, TIS, control cells; settings: fraction of Control DMSO = 1, n 15
[7] = ER:RAS cells, ER:RAS DMSO = 1, single replicates (SUP FIG 9J)
[8] = Replicative senescence, Replicative senescence DMSO = 1, single replicates (SUP FIG 9K)
[9] = ER:RAS cells treated with Oleandrin, relative to ER:RAS DMSO = 1, individual replicates (Sup Fig 9L)

Compound	Mean (cell survival, Tukey test details) [1]	cellular density in non-senescent control cultures, in words ([1]; IMR90 control, 10 nM, 72 h)	NOXA mRNA expression, group mean (Test details, Mean 2) [2]	NOXA mRNA expression [2]	NOXA mRNA expression, in words ([2]; replicative senescence IMR90, 10 nM (Fig. 5d))	p16 mRNA expression [3, 7]	p21 mRNA expression [3, 7]	mRNA expression of the senescence markers p16 and p21 in surviving cells, in words ([3]; OIS, 10 nM, three days)	p16 mRNA expression [4, 8]	p21 mRNA expression [4, 8]	mRNA expression of the senescence markers p16 and p21 in surviving cells, in words ([4]; replicative senescence, 10 nM, three days)	Il1a mRNA expression [5, 9]	Il1b mRNA expression [5, 9]	Il8 mRNA expression [5, 9]	expression of proinflammatory cytokines IL1α, IL1β and IL8 mRNA in surviving cells, in words ([5]; OIS, 10 nM, three days)	Il1a mRNA expression [6]	Il1b mRNA expression [6]	Il8 mRNA expression [6]	Cell survival, mean (Test details, Mean 2) (control A549 cells)
CO[C@H]1C[C@H](O[C@H]2CC[C@@]3(C)[C@H](CC[C@@H]4[C@@H]3CC[C@]3(C)[C@@H](C5=CC(=O)OC5)[C@@H](OC(C)=O)C[C@]43O)C2)O[C@@H](C)[C@@H]1O [Oleandrin, oleandrin]	0.8637	unchanged	56.63	62.46 and 54.37 and 53.07	significant increase	0.68 and 0.69 and 0.24 and 0.46	0.34 and 0.51 and 0.72 and 0.48	reduced	0.71 and 0.46 and 0.42	0.65 and 0.25 and 0.44	reduced	0.753 and 0.593 and 0.059 and 0.346	0.833 and 0.618 and 0.476 and 0.758 and 0.763 and 0.829	0.635 and 0.462 and 0.310 and 0.125 and 0.299	reduced expression	0.137 and 0.086	0.212 and 0.341 and 0.688 and 0.490	0.310 and 0.732 and 0.719	1.13
C[C@@H]1O[C@@H](O[C@H]2C[C@@H](O)[C@]3(CO)[C@H]4[C@H](O)C[C@]5(C)[C@@H](C6=CC(=O)OC6)CC[C@]5(O)[C@@H]4CC[C@]3(O)C2)[C@H](O)[C@H](O)[C@H]1O [Ouabain, ouabain, reference compound]	–	–	15.44	23.42 and 22.01 and 0.88	–	–	–	–	–	–	–	–	–	–	–	–	–	–	–
CO[C@H]1C[C@H](O[C@H]2CC[C@]3(C)[C@H]4CC[C@]5(C)[C@@H](C6=CC(=O)OC6)CC[C@]5(O)[C@@H]4CC[C@]3(O)C2)O[C@H](C)[C@H]1O[C@@H]1O[C@H](CO)[C@@H](O)[C@H](O)[C@H]1O [Periplocin, periplocin]	0.8921	–	–	5.65 and 6.34 and 7.72	–	–	–	–	–	–	–	–	–	–	–	–	–	–	–
